Laboratory results: patent US6365217B2, “N-[N-(3,3-dimethylbutyl)-L-α-aspartyl]-L-phenylalanine 1-methyl ester agglomerate” (The Nutra Sweet Company, priority 1999, dated 2002)
Residues, ends and D or L forms follow the SMILES beside them.

Legend:
[1] = Solubility in water, ethanol and organic solvents; assay type: physicochemical
[2] = under some pH conditions, compared with aspartame; cited from earlier work
[3] = relative to sucrose; cited from earlier work

Row | Structure (SMILES) | solubility in ethanol [1] | solubility in organic solvents ([1]; compared with aspartame) | solubility in water ([1]; water) | stability [2] | sweetening potency [3]
1 | COC(=O)[C@H](Cc1ccccc1)NC(=O)[C@@H](N)CC(=O)O [aspartame, reference compound] (H-Asp-Phe-OMe) | less than 0.1% | – | – | – | –
2 | COC(=O)[C@H](Cc1ccccc1)NC(=O)[C@H](CC(=O)O)NCCC(C)(C)C [N-[N-(3,3-dimethylbutyl)-L-α-aspartyl]-L-phenylalanine 1-methyl ester] | greater than 100 g/100 ml | much higher solubility in organic solvents than aspartame | about 1% | higher stability than aspartame | about 8,000 times
